Measurements reported in patent US20110166152A1, “HETEROAROMATIC COMPOUNDS AS INHIBITORS OF STEAROYL-COENZYME A DELTA-9 DESATURASE” (priority 2008, published 2011).

Biological target: T1, human SCD1 (Homo sapiens, UniProt O00767)
T1 construct: made in house; host or cells: baculovirus/Sf9 insect cells
T1 sequence (O00767 1-359): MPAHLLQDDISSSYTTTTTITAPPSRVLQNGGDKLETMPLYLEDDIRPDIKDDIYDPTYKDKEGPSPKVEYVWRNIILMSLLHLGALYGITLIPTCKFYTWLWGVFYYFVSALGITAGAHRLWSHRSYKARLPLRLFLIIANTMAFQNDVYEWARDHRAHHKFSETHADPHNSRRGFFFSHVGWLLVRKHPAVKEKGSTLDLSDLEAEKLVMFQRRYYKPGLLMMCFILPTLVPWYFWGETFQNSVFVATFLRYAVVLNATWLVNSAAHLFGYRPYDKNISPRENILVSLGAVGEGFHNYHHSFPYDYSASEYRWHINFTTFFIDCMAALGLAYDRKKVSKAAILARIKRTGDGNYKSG
Test: SCD enzyme activity assay, reconstituted human SCD1 ([3H]-stearoyl-CoA conversion)
Format: biochemical
Settings: read-out: IC50 hSCD-1
Experimental: The potency of compounds of formula I against the stearoyl-CoA desaturase was determined by measuring the conversion of radiolabeled stearoyl-CoA to oleoyl-CoA using rat liver microsome or human SCD1 following previously published procedures with some modifications (Joshi, et al., J. Lipid Res., 18: 32-36 (1977); Talamo, et al., Anal. Biochem, 29: 300-304 (1969)). Liver microsome was prepared from male Wistar or Sprague Dawley rats on a high carbohydrate diet for 3 days (LabDiet #5803, Purina). The livers were homogenized (1:10 w/v) in a buffer containing 250 mM sucrose, 1 mM EDTA, 5 mM DTT and 50 mM Tris-HCl (pH 7.5). After a 100,000×g centrifugation for 60 min, the liver microsome pellet was suspended in a buffer containing 100 mM sodium phosphate, 20% glycerol, 2 mM DTT, and stored at −78° C. Human SCD1 desaturase system was reconstituted using human SCD1 from a baculovirus/Sf9 expression system, cytochrome B5 and cytochrome B5 reductase. Typically, test compound in 2 μL DMSO was incubated for 15 min at room temperature with 180 μL of the SCD enzyme in a buffer containing 100 mM Tris-HCl (pH 7.5), ATP (5 mM), Coenzyme-A (0.1 mM), Triton X-100 (0.5 mM) and NADH (2 mM). The reaction was initiated by the addition of 20 μL of [^3H]-stearoyl-CoA (final concentration=2 μM, radioactivity concentration=1 μCi/mL). After 10 min, the reaction mixture (80 μL) was mixed with a calcium chloride/charcoal aqueous suspension (100 μL charcoal (10% w/v) plus 25 μL CaCl2 (2N). After centrifugation to precipitate the radioactive fatty acid species, tritiated water released from 9,10-[^3H]-stearoyl-CoA by the SCD enzyme was quantified on a scintillation counter.

IC50 [nM] | Compound
16 | CCOC(=O)Nc1nc2ncc(-c3cn(Cc4cc(Br)c(Br)c(Br)c4)nn3)nc2s1
14 | O=C(O)c1ccc2nc(-c3cn(Cc4cc(Br)c(Br)c(Br)c4)nn3)sc2c1

Second part, the compound before the results:

Compound | IC50 [nM]
OCc1ccn2cc(-c3cn(Cc4cc(Cl)c(Cl)c(Cl)c4)nn3)nc2c1 | 39
Oc1cnc2nc(-c3cn(Cc4cc(Cl)c(Cl)c(Cl)c4)nn3)sc2n1 | 48
O=C(O)CNc1nc2cnc(-c3cn(Cc4cc(Cl)c(Cl)c(Cl)c4)nn3)nc2s1 | 31
